Assay results as given in patent US8765920B2, “Tyrosine bioconjugation through aqueous Ene-like reactions” (priority 2009, dated 2014).

Assay: Stability study of modified p-cresol under thermal conditions
Assay type: physicochemical
Details: 120° C. for 1 h
Description: Compound 4, the product of the reaction of p-cresol and PTAD, was subjected to both strongly acidic and basic conditions for 24 hours at room temperature or high temperature (120° C.) for 1 hr. […] These conditions are extremely harsh for a peptide or protein.
The relative stability of the C—N bond formed in the products was studied using p-cresol as a model phenol. As shown in Scheme 11, p-cresol was reacted with PTAD in tetrahydrofuran in the presence of sodium hydride to provide adduct in 75% isolated yield. Compound 8f was subjected to both strong acidic and basic conditions for 24 hours at room temperature or high temperature (120° C.) for 1 h.
Compound 4 (4.00 mg, 0.0141 mmol) was heated at 120° C. for 1 h according to the literature. The recovery of 4 was 4.00 mg (quant.).
Compound 23 (4.00 mg, 0.0141 mmol) was heated at 120° C. for 1 h according to literature. The recovery of 23 was 4.00 mg (quant.).

Cc1ccc(O)c(-n2[nH]c(=O)n(-c3ccccc3)c2=O)c1 [Compound 4, 1-(2-hydroxy-5-methylphenyl)-4-phenyl-1,2,4-triazolidine-3,5-dione]
decomposition by 1H NMR after heating: wasn't detected
